In patent publication US9387231B2, “Compositions comprising a Brd4 antagonist and methods for the treatment of HIV” (THE CHILDREN'S HOSPITAL OF PHILADELPHIA, priority 2011, dated 2016):

Legend:
Format in all cases: cell-based
HIV-1 NL43 = experiment: Viral integration in primary resting CD4 T-cells by Alu-PCR; conditions: for provirus/cell: NL43, 1 μM, T48 h, listed as JQ(+)
Experimental: To determine if JQ1(+) affects viral integration in primary resting CD4 T-cells, the cells were purified and infected with HIV-1 NL43 or mock control. The infected cells were then cultured in the presence of 1 μM of JQ1(+) or JQ1(−) for 48 hours. Cell pellets were collected at 0 hours and 48 hours after infection. DNA was isolated and the viral integration in resting CD4 T-cells was measured by Alu-PCR.

Primary CD4 T-cells = experiment: Cell death of HIV-infected primary CD4 T-cells (FSC/SSC); conditions: primary activated CD4 T-cells infected with NL43 or SG3, 0.1 μM, days 3-13
Experimental: (§1) Primary CD4 T-cells were activated with anti-CD3/28, then infected with HIV, NL43 or SG3, and cultured in the presence of JQ1(+) (1 μM or 0.1 μM) or media. At days 3, 6, 10 and 13 after infection, cell death was measured by percent of FSC/SSC (forward scatter/side scatter) as indicated in individual plots (FIGS. 8A and 8C). The expression of p24 in live cells was examined by flow cytometry and is shown as the percentage of p24+ cells (FIGS. 8B and 8D).
(§2) Of note, mean fluorescence of p24 was unchanged in the presence of the active inhibitor, indicating there was not a non-specific toxic drug effect and supporting the observation that BET antagonism inhibits HIV production at late time points of infection in primary activated CD4 T-cells.

[1] = tested on: HIV (NL43, SG3, BAL1 or BL2); experiment: HIV infection of primary activated CD4 T-cells (p24 by flow cytometry or ELISA)
Excerpt: Primary CD4 T-cells were activated with anti-CD3/28, infected with NL43, SG3, BAL1, or BL2 (FIG. 1A) or NL43 (FIGS. 1B and 1C), and cultured in the presence of the BET antagonist JQ1(+) or the control enantiomer JQ1(−). FIG. 1A provides the expression of p24Gag in cells as determined by flow cytometry. FIGS. 1B and 1C show viral production as measured in culture supernatants by ELISA.
as §1
BET antagonists inhibit viral infection in primary activated CD4 T-cells. Specifically, the effect of the BET antagonist JQ1(+) on viral replication was tested in HIV-infected T-cells. Primary activated CD4 T-cells were infected with X4-tropic virus (NL43 or SG3) or R5-tropic virus (BAL1 or BL2) in the presence or absence of JQ1(+) (1 μM). Viral infection was measured by flow cytometry or ELISA at various days after infection.
as §2

HIV (NL43, SG3) = experiment: Viral production and p24Gag expression in HIV-infected CEMss LTR-GFP cells
HIV LTR = experiment: Reactivation of the HIV LTR in latently infected J-Lat clones (GFP by flow cytometry)
Experimental: GFP expression was measured by flow cytometry. FIGS. 3B and 3C shown the percentage of cells positive for GFP (FIG. 3B) and the mean MFI of GFP (FIG. 3C) in latently infected cell lines, J-Lat clones 82, A72, A7, A2, and A1, at 16 hours after TNFα or PHA was added in the cultures in the presence of JQ1(+) or JQ1(−). […] GFP expression in cells was measured by flow cytometry and is indicated as percent of GFP+ cells in gated live cell populations. An average of 5 experiments is shown. * p<0.05, ** p<0.01, *** p<0.001. […] Average of 3 experiments is shown. * p<0.05. For FIG. 3F, J-Lat A2 and A72 cells were reactivated with TNFα (20 ng/ml) or HIV Tat protein (50 μg/ml) in the presence of JQ1(+) or JQ1(−) for 16-18 hours, and GFP expression in cells was measured by flow cytometry. One representative experiment is shown. In each dot plot, non-underlined numbers indicate percentage of GFP+ cells and underlined numbers indicate mean fluorescence of GFP (MFI).
Next, the effect of JQ1 on activation of the HIV LTR was tested using a latently infected Jurkat-derived cell clone, J-Lat clone A2. GFP expression in J-Lat clone A2 is induced upon reactivation with tumor necrosis factor-alpha (TNFα) or phytohaemagglutinin (PHA).
To further study the mechanism of how JQ1 drives reactivation of HIV latency, HIV latently infected T-cell lines—J-Lat clones A1, A2, A7, and A72—were utilized. The effect of JQ1(+) on reactivation of HIV latency in these cell lines were confirmed. TNFα (20 ng/ml) or PHA (1.5 μg/ml) was added to cultures of J-Lat clones in the presence of 1 μM JQ1(+) or JQ1(−). After 16 hours, expression of GFP was measured by flow cytometry. […] In the presence of HIV Tat, BET antagonism enhances Tat-driven transcription of the HIV LTR in J-Lat clones A2 and A72 (FIG. 3F; underlined numbers indicate mean GFP fluorescence, non-underlined numbers indicate percent of GFP+ cells). […] Displacement of Brd4 from chromatin by JQ1(+) may cause conformational change in the chromatin, exposing NF-κb binding sites, leading to increased HIV transcription and reactivation of latency.

With `Cc1sc2c(c1C)C(c1ccc(Cl)cc1)=N[C@@H](CC(=O)OC(C)(C)C)c1nnc(C)n1-2` [JQ1(+), tert-butyl 2-((6S)-4-(4-chlorophenyl)-2,3,9-trimethyl-6H-thieno[3,2-f][1,2,4]triazolo[4,3-a][1,4]diazepin-6-yl)acetate] the provirus/cell (HIV-1 NL43; Exp. 1, primary resting CD4 T-cells) was 0.559 ± 0.005 provirus/cell, the provirus/cell (HIV-1 NL43; Exp. 2, primary resting CD4 T-cells) was 0.444 ± 0.120 provirus/cell and the Viral integration (HIV-1 NL43; primary resting CD4 T-cells, 1 μM, 48 hours, Alu-PCR) was “does not significantly affect”. The Cell death (Primary CD4 T-cells) was “did not cause cell death above control values”, the “Viral infection at low concentration” value ([1]; primary CD4 T-cells, NL43, 0.1 μM) was “inhibition of viral infection was also observed” and the “HIV infection (viral production, ELISA)” value ([1]; primary CD4 T-cells, NL43, days 3 and 6 after infection, p<0.05) was “significantly inhibited”. For the same molecule, the “Relative number of virus-expressing cells (percentage of p24+ cells)” value ([1]; primary activated CD4 T-cells, NL43 or SG3, 0.1 μM) was “still suppressed”, the Levels of infection ([1]; primary activated CD4 T-cells, X4-tropic (NL43, SG3) or R5-tropic (BAL1, BL2) virus, 1 μM, flow cytometry or ELISA, various days) was “decrease” and the “Mean fluorescence of p24” value ([1]; primary activated CD4 T-cells, in the presence of the active inhibitor) was “unchanged”. The “Relative number of Gag-expressing live GFP+ cells” value (HIV (NL43, SG3); CEMss LTR-GFP cells infected with SG3, day 5 post-infection, flow cytometry) was “significantly decreased”, the “Production of p24 in supernatants” value (HIV (NL43, SG3); CEMss LTR-GFP cells, HIV NL4-3, 0.25 μM, day 6 after infection, ELISA) was “decreased below control values” and the “Expression of p24Gag in the infected cells (ratio of p24+ in GFP+ population)” value (HIV (NL43, SG3); CEMss LTR-GFP cells, NL43, 1 μM, day 3 after infection) was “decreased”. The “Viral production (p24Gag in supernatants, ELISA)” value (HIV (NL43, SG3); CEMss LTR-GFP cells, NL43, 1 μM, day 6 after infection) was “decreased”, the “GFP expression (% positive cells and mean fluorescence intensity)” value (HIV LTR; J-Lat clone A2, with TNFα or PHA, 0.5 μM, 16 hours, versus JQ1(−) control) was “higher” and the “Tat-driven transcription of the HIV LTR (GFP)” value (HIV LTR; J-Lat clones A2 and A72, HIV Tat protein 50 μg/ml, 16-18 hours) was “enhances”. The “GFP expression with TNFα” value (HIV LTR; J-Lat clones A72 and A2, TNFα 20 ng/ml plus compound 1 μM) was “dramatically enhanced” and the “Percent of cells expressing GFP” value (HIV LTR; J-Lat clones, compound alone, 1 μM, 16-18 hours) was “increased”.
